Patent US10000476B2, “Pyridone derivative, pharmaceutical containing the same and methods of use thereof” (KAKEN PHARMACEUTICAL CO., LTD., priority 2011, dated 2018)

Columns and labels:
[1] = target: human MMP-1 (Homo sapiens (Human), UniProt P03956); experiment: MMP-1 inhibition test; format: biochemical; details: read-out: MMPs IC50 MMP-1
Procedure: (§1) MMP inhibition tests can be carried out, for example, using a fluorescent synthetic substrate based on the methods described in Bickett et al. (D. Mark Bickett et al., Anal. Biochem., 1993, 212, 58-64) and Nagase et al. (H. Nagase et al., J. Biol. Chem., 1994, 269, 20952-20957). The method for each MMP inhibition test is shown below.
180 μL (100 ng) of human MMP-1 (Calbiochem #444208) was mixed with 20 μL of 10 mM p-amino phenyl mercuric acetate (APMA), and activated by reacting at 37° C. for 1 hour. 20 μL of the resultant enzyme solution was diluted to 90 μL with an assay buffer A. The mixture was added to 90 μL of a 20 μM fluorescent substrate (Dnp-Pro-Cha(β-cyclohexylalanyl)-Gly-Cys(Me)-His-Ala-Lys(Nma)-NH2) (SEQ ID NO: 2) prepared with an assay buffer B, and reacted at 37° C. for 5 hours. Enzyme activity was then determined by measuring with a fluorescence intensity meter (Labsystems, Fluoroskan Ascent) at an excitation wavelength of 355 nm and a measurement wavelength of 460 nm.
(§2) From the enzyme activity in the presence or the absence of the test substance, the inhibition rate was determined, and the 50% inhibitiory concentration (IC50) of the test substance was calculated.

[2] = target: human MMP-17 (Homo sapiens, UniProt Q9ULZ9); experiment: MMP-17 inhibition test; format: biochemical; details: read-out: MMPs IC50 MMP-17
Sequence of human MMP-17 (Q9ULZ9 126-565 limits assumed): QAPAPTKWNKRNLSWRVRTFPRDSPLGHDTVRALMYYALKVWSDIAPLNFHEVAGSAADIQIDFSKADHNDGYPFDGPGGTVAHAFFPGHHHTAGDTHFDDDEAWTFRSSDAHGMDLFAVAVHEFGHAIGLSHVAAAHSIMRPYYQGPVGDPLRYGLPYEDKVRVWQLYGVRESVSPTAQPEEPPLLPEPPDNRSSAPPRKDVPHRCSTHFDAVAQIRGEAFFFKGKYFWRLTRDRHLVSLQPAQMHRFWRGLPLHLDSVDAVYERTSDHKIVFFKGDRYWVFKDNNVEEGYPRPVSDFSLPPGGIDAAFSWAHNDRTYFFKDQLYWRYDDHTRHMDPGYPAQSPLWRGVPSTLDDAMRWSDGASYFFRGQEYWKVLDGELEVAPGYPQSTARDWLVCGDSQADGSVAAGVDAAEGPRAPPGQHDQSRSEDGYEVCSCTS
Procedure: as §1
90 μL (5.8 ng) of human MMP-17 (Calbiochem #475940) prepared with an assay buffer A was added to 90 μL of a 20 μM fluorescent substrate (MOCAc-Pro-Leu-Gly-Leu-A2pr(Dnp)-Ala-Arg-NH2, Peptide Institute Inc., #3163-v) (SEQ ID NO: 3) prepared with an assay buffer B, and reacted at room temperature for 5 hours. Enzyme activity was then determined by measuring with a fluorescence intensity meter (Labsystems, Fluoroskan Ascent) at an excitation wavelength of 320 nm and a measurement wavelength of 405 nm.
as §2

[3] = target: human MMP-3 (Homo sapiens (Human), UniProt P08254); experiment: MMP-3 inhibition test; format: biochemical; details: read-out: MMPs IC50 MMP-3
Sequence of human MMP-3 (P08254 100-272): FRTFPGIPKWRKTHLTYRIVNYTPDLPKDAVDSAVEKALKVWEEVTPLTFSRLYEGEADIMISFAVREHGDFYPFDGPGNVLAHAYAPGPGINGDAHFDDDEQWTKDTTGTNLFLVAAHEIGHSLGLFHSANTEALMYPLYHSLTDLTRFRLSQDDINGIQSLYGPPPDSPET
Procedure: as §1
90 μL (1.5 ng) of human MMP-3 (Calbiochem #444217) prepared with an assay buffer A was added to 90 μL of a 20 μM fluorescent substrate NFF-3 (MOCAc((7-methoxycoumarin-4-yl)acetyl)-Arg-Pro-Lys-Pro-Val-Glu-Nva-Trp-Arg-Lys(Dnp)-NH2, Peptide Institute Inc., #3168-v) (SEQ ID NO: 4) prepared with an assay buffer B, and reacted at 37° C. for 4 hours. Enzyme activity was then determined by measuring with a fluorescence intensity meter (Labsystems, Fluoroskan Ascent) at an excitation wavelength of 320 nm and a measurement wavelength of 405 nm.
as §2

[4] = target: human MMP-14 (Homo sapiens (Human), UniProt P50281); experiment: MMP-14 inhibition test; format: biochemical; details: read-out: MMPs IC50 MMP-14
Procedure: as §1
90 μL (1.9 ng) of human MMP-14 (Calbiochem #475935) prepared with an assay buffer A was added to 90 μL of a 20 μM fluorescent substrate (Dnp-Pro-Cha-Gly-Cys(Me)-His-Ala-Lys(Nma)-NH2) (SEQ ID NO: 2) prepared with an assay buffer B, and reacted at 37° C. for 5 hours. Enzyme activity was then determined by measuring with a fluorescence intensity meter (Labsystems, Fluoroskan Ascent) at an excitation wavelength of 355 nm and a measurement wavelength of 460 nm.
as §2

[5] = target: human MMP-8 (Homo sapiens (Human), UniProt P22894); experiment: MMP-8 inhibition test; format: biochemical; details: read-out: MMPs IC50 MMP-8
Sequence of human MMP-8 (P22894 101-467): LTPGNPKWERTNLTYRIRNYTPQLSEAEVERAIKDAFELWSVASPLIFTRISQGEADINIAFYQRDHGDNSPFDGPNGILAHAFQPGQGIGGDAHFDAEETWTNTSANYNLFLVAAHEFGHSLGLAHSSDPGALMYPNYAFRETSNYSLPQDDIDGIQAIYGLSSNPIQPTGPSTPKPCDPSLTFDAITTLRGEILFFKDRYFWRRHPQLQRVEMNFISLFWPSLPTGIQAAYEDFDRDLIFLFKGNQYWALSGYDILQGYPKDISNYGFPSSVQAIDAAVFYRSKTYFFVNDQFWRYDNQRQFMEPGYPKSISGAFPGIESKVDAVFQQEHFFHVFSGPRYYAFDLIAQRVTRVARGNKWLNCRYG
Procedure: as §1
90 μL (29 ng) of human MMP-8 (Calbiochem #444229) was mixed with 10 μL of 10 mM APMA, and activated by reacting at 37° C. for 1 hour. 10 μL of the resultant enzyme solution was diluted to 90 μL with an assay buffer A. The mixture was added to 90 μL of a 20 μM fluorescent substrate (MOCAc-Pro-Leu-Gly-Leu-A2pr(Dnp)-Ala-Arg-NH2, Peptide Institute Inc., #3163-v) (SEQ ID NO: 3) prepared with an assay buffer B, and reacted at 37° C. for 5 hours. Enzyme activity was then determined by measuring with a fluorescence intensity meter (Labsystems, Fluoroskan Ascent) at an excitation wavelength of 320 nm and a measurement wavelength of 405 nm.
as §2

[6] = system: auricular oedema induced by TPA in BALB/c mice; experiment: Inhibition test of auricular oedema induced by single application of TPA in mouse; format: in vivo; details: 1 w/v % solution applied topically to ear 1 hour before TPA, auricle thickness 6 hours after TPA, read-out: Auricular oedema inhibition rate (%)
Procedure: Inhibition Test of Auricular Oedema Induced by Single Application of TPA (12-O-tetradecanoylphorbol-13-acetate) in Mouse (In Vivo Efficacy Test Based on TNF-α-Related Cutaneous Inflammation)
Auricular oedema was induced by applying 54 μmol/L TPA-acetone solution on both the inner and outer sides of the left ear of BALB/c mice (application volume of 54 μmol/L TPA-acetone solution is 10 μL for each side of the left ear (i.e. 1.08 nmol TPA/auricle)). For a non-induced group, acetone was similarly applied instead of the 54 μmol/L TPA-acetone solution. The test substance was dissolved and prepared in a 1 w/v % solution of acetone containing 10 vol % DMSO (topical administration vehicle), then the test solution was applied onto both the inner and outer sides of the left ear of the mice (application volume of this test solution is 10 μL for each side of the left ear) 1 hour before the TPA application. For a control group, the topical administration vehicle was similarly applied instead of the test substance solution. For an etanercept group, 0.2 mL of a 5 mg/mL etanercept solution was intravenously administered (1 mg/mouse) the day before TPA application and 1.5 hours before TPA application. For a human IgG (hIgG) group (etanercept control group), 0.2 mL of a 5 mg/mL hIgG solution was intravenously administered (1 mg/mouse). Auricle thickness was measured under ether anesthesia the day before TPA application and 6 hours after TPA application for evaluation of the auricular oedema inhibition effect of the test substance based on the increase in auricle thickness as an index.
The auricular oedema inhibition rate (%) of the test substance was calculated based on the following formula using (A) the average value of the increase in auricular thickness of the group administered with the test substance, (B) the average value of the increase in auricular thickness of the non-induced group, and (C) the average value of the increase in auricular thickness of the control group. […]

Sequence of human MMP-1 (P03956 100-469): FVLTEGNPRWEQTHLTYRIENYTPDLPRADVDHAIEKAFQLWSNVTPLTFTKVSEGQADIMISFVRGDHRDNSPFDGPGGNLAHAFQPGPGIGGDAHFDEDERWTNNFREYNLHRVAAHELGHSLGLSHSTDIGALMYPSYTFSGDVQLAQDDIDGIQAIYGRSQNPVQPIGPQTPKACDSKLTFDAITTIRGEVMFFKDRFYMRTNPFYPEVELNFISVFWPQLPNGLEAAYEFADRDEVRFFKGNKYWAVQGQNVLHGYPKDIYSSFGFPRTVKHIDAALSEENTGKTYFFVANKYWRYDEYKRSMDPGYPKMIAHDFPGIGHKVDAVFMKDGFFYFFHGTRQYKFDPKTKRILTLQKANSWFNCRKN

Row | SMILES | IC50 [1] [µM] | IC50 [2] [µM] | IC50 [3] [µM] | IC50 [4] [µM] | IC50 [5] [µM] | inhibition in vivo at 10000 µg/mL [6] [%]
1 | Cc1cccn(CC2(c3ccc(Oc4ccccc4)cc3)NC(=O)NC2=O)c1=O (stereo not shown) [Compound I-9, 5-[(3-methyl-2-oxopyridin-1(2H)-yl)methyl]-5-(4-phenoxyphenyl)imidazolidine-2,4-dione] | > 100 | 21 | 74 | 12 | 14 | 66
2 | Cc1cccn(CC2(c3ccc(Cc4ccccc4)cc3)NC(=O)NC2=O)c1=O (stereo not shown) [Compound I-40, 5-(4-benzylphenyl)-5-[(3-methyl-2-oxopyridin-1(2H)-yl)methyl]imidazolidine-2,4-dione] | > 100 | 30 | > 100 | 22 | 16 | 63
3 | Cc1cccn(CC2(c3ccc(Cc4ccc(F)cc4)cc3)NC(=O)NC2=O)c1=O (stereo not shown) [Compound I-41, 5-[4-(4-fluorobenzyl)phenyl]-5-[(3-methyl-2-oxopyridin-1(2H)-yl)methyl] imidazolidine-2,4-dione] | 93 | 16 | > 100 | 21 | > 10 | 51
4 | Cc1cccn(CC2(c3cccc(-c4cccnc4)c3)NC(=O)NC2=O)c1=O (stereo not shown) [Compound I-62] | > 100 | 45 | 39 | 22 | 5 | 47
5 | Cc1cccn(CC2(c3ccc(OCc4ccccc4)cc3)NC(=O)NC2=O)c1=O (stereo not shown) [Compound I-64] | > 100 | > 100 | > 100 | 6 | 6.2 | 50

Further lines, with some results ahead:

Row | IC50 [1] [µM] | IC50 [2] [µM] | IC50 [3] [µM] | IC50 [4] [µM] | IC50 [5] [µM] | SMILES | inhibition in vivo at 10000 µg/mL [6] [%]
6 | > 100 | > 100 | > 100 | 31 | 21 | Cc1cccn(CC2(c3ccccc3)NC(=O)NC2=O)c1=O (stereo not shown) [Compound I-1, 5-[(3-methyl-2-oxopyridin-1(2H)-yl)methyl]-5-phenyl-imidazolidine-2,4-dione] | –
7 | > 100 | > 100 | > 100 | 30 | 19 | Cc1cccn(CC2(c3ccc(F)c(F)c3)NC(=O)NC2=O)c1=O (stereo not shown) [Compound I-10, 5-(3,4-difluorophenyl)-5-[(3-methyl-2-oxopyridin-1(2H)-yl)methyl] imidazolidine-2,4-dione] | 46
8 | > 100 | 57 | 49 | 11 | 16 | COc1ccc(Cl)cc1C1(Cn2cccc(C)c2=O)NC(=O)NC1=O (stereo not shown) [Compound I-27, 5-(5-chloro-2-methoxyphenyl)-5-[(3-methyl-2-oxopyridin-1(2H)-yl)methyl]imidazolidine-2,4-dione] | –
9 | > 100 | 27 | > 100 | 23 | 18 | Cc1cccn(CC2(c3ccc(Oc4ccccc4F)cc3)NC(=O)NC2=O)c1=O (stereo not shown) [Compound I-86] | 68
